In general, IC50 refers to the concentration that inhibits the measured activity by half.

This passage reports IC50 results from US20160272635A1, “SUBSTITUTED DIHYDROPYRIDO[3,4-B]PYRAZINONES AS DUAL INHIBITORS OF BET PROTEINS AND POLO-LIKE KINASES” (BAYER PHARMA AKTIENGESELLSCHAFT, priority 2013, published 2016).

The target of assay [1] is T1, BRD4 bromo domain 1 [BRD4(1)] (Homo sapiens, UniProt O60885).
T1 construct: N-terminally His6-tagged BRD4(1) (amino acids 67-152); made in house; host or cells: E. coli
Kind of assay: BRD4(1)/acetylated peptide H4 binding assay (TR-FRET). The settings on record: inhibition of interaction between BRD4(1) and acetylated histone H4 peptide. The text has this:
To assess the BRD4(1) binding strength of the substances described in this application, the ability thereof to inhibit the interaction between BRD4(1) and acetylated histone H4 in a dose-dependent manner was quantified.
For this purpose, a time-resolved fluorescence resonance energy transfer (TR-FRET) assay was used, which measures the binding between N-terminally His6-tagged BRD4(1) (amino acids 67-152) and a synthetic acetylated histone H4 (Ac-H4) peptide with sequence GRGK(Ac)GGK(Ac)GLGK(Ac)GGAK(Ac)RHGSGSK-biotin. The recombinant BRD4(1) protein produced in-house according to Filippakopoulos et al., Cell, 2012, 149:214-231 was expressed in E. coli and purified by means of (Ni-NTA) affinity and (Sephadex G-75) size exclusion chromatography. The Ac-H4 peptide can be purchased, for example, from Biosyntan (Berlin, Germany).
In the assay, typically 11 different concentrations of each substance (0.1 nM, 0.33 nM, 1.1 nM, 3.8 nM, 13 nM, 44 nM, 0.15 μM, 0.51 μM, 1.7 μM, 5.9 μM and 20 μM) were analysed as duplicates on the same microtitre plate. For this purpose, 100-fold concentrated solutions in DMSO were prepared by serial dilutions (1:3.4) of a 2 mM stock solution into a clear, 384-well microtitre plate (Greiner Bio-One, Frickenhausen, Germany). From this, 50 n1 were transferred into a black test plate (Greiner Bio-One, Frickenhausen, Germany). The test was started by the addition of 2 μl of a 2.5-fold concentrated BRD4(1) solution (final concentration typically 10 nM in the 5 μl of reaction volume) in aqueous assay buffer [50 mM HEPES pH 7.5, 50 mM sodium chloride (NaCl), 0.25 mM CHAPS and 0.05% serum albumin (BSA)] to the substances in the test plate. This was followed by a 10-minute incubation step at 22° C. for the pre-equilibration of putative complexes between BRD4(1) and the substances.
The mixture was then incubated in the dark at 22° C. for one hour and then at 4° C. for at least 3 hours and for no longer than overnight. The formation of BRD4(1)/Ac-H4 complexes was determined by the measurement of the resonance energy transfer from the streptavidin-Eu cryptate to the anti-6His-XL665 antibody present in the reaction. For this purpose, the fluorescence emission was measured at 620 nm and 665 nm after excitation at 330-350 nm in a TR-FRET measuring instrument, for example a Rubystar or Pherastar (both from BMG Lab Technologies, Offenburg, Germany) or a Viewlux (Perkin-Elmer). The ratio of the emissions at 665 nm and at 622 nm was taken as an indicator of the amount of BRD4(1)/Ac-H4 complexes formed.
The data (ratios) obtained were normalized, with 0% inhibition corresponding to the mean from the measurements for a set of controls (typically 32 data points) in which all the reagents were present. In these, in place of test substances, 50 nl of DMSO (100%) were used Inhibition of 100% corresponded to the mean from the measurements for a set of controls (typically 32 data points) in which all the reagents except BRD4(1) were present. The IC50 was determined by regression analysis based on a 4-parameter equation (minimum, maximum, IC50, Hill; Y=Max+(Min−Max)/(1+(X/IC50)Hill).
(In general: In TR-FRET formats the signal depends on donor and acceptor labels being close together.)

Assay [2] addresses T2, Plk-1 (Homo sapiens, UniProt P53350).
T2 construct: Recombinant fusion protein consisting of GST and Plk (kinase domain 33-345); MW 36 kDa; GST; made in house; host or cells: insect cells (Hi5)
Kind of assay: Plk-1 enzyme assay (indirect HTRF kinase assay). Format: biochemical. How it is done: Recombinant fusion protein consisting of GST and Plk (kinase domain 33-345; MW 36 kDa, conc 0.8 μg/μl) expressed from insect cells (Hi5) and purified by glutathione Sepharose affinity chromatography and subsequent gel filtration (Superdex 75) is used for the kinase assay. Aliquots thereof are frozen in liquid nitrogen and stored at −80° C. and, after thawing, used only once.
The assay used is an indirect HTRF assay which employs the following materials and procedures. The substrate used for the kinase reaction is the biotinylated peptide Btn-Ahx-KKLNRTLSFAEPG-amide x TFA from Biosyntan, Sample No.: 6178.1 (C-terminus in amide form). This is an artificial sequence not derived from any known protein. 50 nl of the test compounds dissolved in 100% dimethyl sulphoxide (DMSO) (final concentrations: 0 μM and concentrations in the range of 0.001-20 μM) are pre-incubated with 2 μl Plk-1 enzyme working solution in working buffer [25 mM MgCl2; 1 mM DTT; 50 mM Hepes pH 7.0; 0.01% NP40; 1× Complete; 0.05% BSA] for 30 min. The kinase reaction is then initiated by addition of 3 μl of substrate solution [adenosine triphosphate (ATP) and 1.4 μM substrate peptide (biotin-Ttds-KKLNRTLSFAEPG-NH2)] in working buffer, and, after 30 min, stopped by addition of a stopper solution (100 mM EDTA, 100 mM Hepes pH 7.5, 800 mM potassium fluoride, 0.12% BSA, 0.4 μM SA-XLent (0.05 μM, from CIS bio international, Marcoule, France), Eu^3+ cryptate-conjugated rabbit anti-mouse IgG (1.5 nM; an anti-mouse IgG antibody labelled with europium cryptate from CIS bio international, Marcoule, France), 1 nM anti-phospho-serine kinase (a phospho-specific antibody from Upstate Biotechnology, Dundee, Scotland), and incubated at 4° C. overnight.
For the test at low ATP concentration, a 1.25 ng/μl Plk-1 working solution and 16.7 μM ATP are used, for the test at high ATP concentration, a 0.039 ng/μl Plk-1 working solution and 16.7 mM ATP are used.
The amount of phosphorylated substrate peptide is then determined by measuring the resonance energy transfer from europium-labelled antibody complex to streptavidine-XLent. To this end, the fluorescence emission at 620 nm and 665 nm is measured following excitation at 350 nm in an HTRF measuring instrument, e.g. Rubystar (BMG Labtechnologies, Offenburg, Germany) or Viewlux (Perkin-Elmer). The ratio of the emissions at 665 nm and at 620 nm is taken as a measure of the amount of phosphorylated substrate peptide. The data are normalized (enzyme reaction without inhibitor=0% inhibition, all other assay components, but no enzyme=100% inhibition), and IC50 values are calculated using a 4 parameter equation (minimum, maximum, IC50, Hill; Y=max+(min−max)/(1+(X/IC50)Hill)).

Assay [3] concerns MOLM-13 cell line. Briefly: MOLM-13 cell proliferation assay (alamarBlue). Format: cell-based. The settings on record: Homo sapiens; MOLM-13 cells, 96 hours incubation, inhibition of cell proliferation. How it is done:
In accordance with the invention, the substances were tested for their ability to inhibit the proliferation of the MOLM-13 cell linie (Deutsche Sammlung far Mikroorganismen and Zellkulturen [German Collection of Microorganisms and Cell Cultures], ACC 554). Cell viability was determined by means of the alamarBlue® reagent (Invitrogen) in a Victor X3 Multilabel Reader (Perkin Elmer). The excitation wavelength was 530 nm and the emission wavelength […].
The MOLM-13 cells were shown at a density of 4000 cells/well in 100 μl of growth medium on 96-well microtitre plates. After overnight incubation at 37° C., the fluorescence values (CI values) were determined. The plates were then treated with various substance dilutions and incubated at 37° C. for 96 hours. Subsequently, the fluorescence values were determined (CO values). For the data analysis, the CI values were subtracted from the CO values and the results were compared between cells which had been treated with various dilutions of the substance or only with buffer solution. The IC50 values (substance concentration needed for 50% inhibition of cell proliferation) were calculated therefrom.

Where [4] appears, read: 10 mM ATP (high ATP concentration), read-out: IC50 [Plk-1] (10 mM ATP).
[5] abbreviates: 10 μM ATP (low ATP concentration), read-out: IC50 [Plk-1] (10 μM ATP).

Read-outs that look alike come from different tables or passages of the source.

T2 sequence (P53350 33-345): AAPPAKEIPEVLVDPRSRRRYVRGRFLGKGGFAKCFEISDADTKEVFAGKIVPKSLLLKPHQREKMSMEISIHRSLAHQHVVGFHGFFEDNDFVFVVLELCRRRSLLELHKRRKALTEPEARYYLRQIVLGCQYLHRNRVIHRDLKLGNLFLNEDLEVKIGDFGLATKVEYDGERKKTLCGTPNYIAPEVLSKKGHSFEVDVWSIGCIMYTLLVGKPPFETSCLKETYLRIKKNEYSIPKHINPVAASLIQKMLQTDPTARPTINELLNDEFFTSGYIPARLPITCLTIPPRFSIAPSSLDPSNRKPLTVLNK

`CC[C@@H]1C(=O)N(C)c2cnc(Nc3ncc(C(=O)NC4CCOCC4)cc3OC)cc2N1C1CCCC1` [Example 10, 6-[[(2R)-1-Cyclopentyl-2-ethyl-1,2,3,4-tetrahydro-4-methyl-3-oxopyrido[3,4-b]pyrazin-7-yl]amino]-5-methoxy-N-(tetrahydro-2H-pyran-4-yl)-3-pyridinecarboxamide]: the IC50 is 0.376 µM in assay [1], 0.031 µM in assay [2] (setting [4]) and 0.043 µM in assay [3].

`CC[C@@H]1C(=O)N(C)c2cnc(Nc3ncc(C(=O)NC4CCOCC4)cc3C)cc2N1C1CCCC1` [Example 17, 6-{[(2R)-1-Cyclopentyl-2-ethyl-4-methyl-3-oxo-1,2,3,4-tetrahydropyrido[3,4-b]pyrazin-7-yl]amino}-5-methyl-N-(tetrahydro-2H-pyran-4-yl)pyridine-3-carboxamide]: the IC50 turned out to be 0.539 µM in assay [1], 0.008 µM in assay [2] (setting [5]), 0.014 µM in assay [2] (setting [4]) and 0.055 µM in assay [3].

With `COc1cc(C(=O)NC2CCN(C)CC2)cnc1Nc1cc2c(cn1)N(C)C(=O)C(C)N2C1CCCC1` (stereo not drawn) [Example 6, 6-[(1-Cyclopentyl-2,4-dimethyl-3-oxo-1,2,3,4-tetrahydropyrido[3,4-b]pyrazin-7-yl)amino]-5-methoxy-N-(1-methylpiperidin-4-yl)pyridine-3-carboxamide], the IC50 amounted to 0.243 µM in assay [1], 0.019 µM in assay [2] (setting [4]) and 0.114 µM in assay [3].

Take `CC[C@@H]1C(=O)N(C)c2cnc(Nc3ncc(C(=O)NCc4cccnc4)cc3OC)cc2N1C1CCCC1` [Example 12, 6-[[(2R)-1-Cyclopentyl-2-ethyl-1,2,3,4-tetrahydro-4-methyl-3-oxopyrido[3,4-b]pyrazin-7-yl]amino]-5-methoxy-N-(3-pyridinylmethyl)-3-pyridinecarboxamide]: the IC50 came out at 0.424 µM in assay [1], 0.023 µM in assay [2] (setting [4]) and 0.052 µM in assay [3].

On to `CC[C@@H]1C(=O)N(C)c2cnc(Nc3ncc(C(=O)NC4CC4)cc3OC)cc2N1C1CCCC1` [Example 5, 6-[[(2R)-1-Cyclopentyl-2-ethyl-1,2,3,4-tetrahydro-4-methyl-3-oxopyrido[3,4-b]pyrazin-7-yl)amino]-N-cyclopropyl-5-methoxy-3-pyridinecarboxamide], for which the concentration for half-maximal inhibition (IC50) in assay [1] came out at 0.225 µM; in assay [2] (setting [5]), 0.007 µM; in assay [2] (setting [4]), 0.021 µM; in assay [3], 0.029 µM.

As for `COc1cc(C(=O)NC2CC2)cnc1Nc1cc2c(cn1)N(C)C(=O)[C@@H](C)N2C1CCCC1` [Example 2, 6-{[(2R)-1-Cyclopentyl-2,4-dimethyl-3-oxo-1,2,3,4-tetrahydropyrido[3,4-b]pyrazin-7-yl]amino}-N-cyclopropyl-5-methoxypyridine-3-carboxamide], the IC50 in assay [1] is 0.126 µM; in assay [2] (setting [5]) it was 0.017 µM; in assay [3], 0.093 µM.

On to `CCC1C(=O)N(C)c2cnc(Nc3ncc(C(=O)NC4CC4)cc3OC)cc2N1C1CCCC1` (stereo not drawn) [Example 4, 6-[(1-Cyclopentyl-2-ethyl-1,2,3,4-tetrahydro-4-methyl-3-oxopyrido[3,4-b]pyrazin-7-yl)amino]-N-cyclopropyl-5-methoxy-3-pyridinecarboxamide], for which the concentration for half-maximal inhibition (IC50) in assay [1] was 0.45 µM; in assay [2] (setting [4]) it was 0.031 µM; in assay [3], 0.068 µM.

For the molecule `CC[C@@H]1C(=O)N(C)c2cnc(Nc3ncc(C(=O)NCCOC)cc3OC)cc2N1C1CCCC1` [Example 8, 6-[[(2R)-1-Cyclopentyl-2-ethyl-1,2,3,4-tetrahydro-4-methyl-3-oxopyrido[3,4-b]pyrazin-7-yl]amino]-5-methoxy-N-(2-methoxyethyl)-3-pyridinecarboxamide], the half-maximal inhibitory concentration (IC50) in assay [1] amounted to 0.333 µM; in assay [2] (setting [5]), 0.009 µM; in assay [2] (setting [4]), 0.022 µM; in assay [3], 0.072 µM.

Take `COc1cc(C(=O)NC2CC2)cnc1Nc1cc2c(cn1)N(C)C(=O)C(C)N2C1CCCC1` (stereo not drawn) [Example 1, 6-{[1-Cyclopentyl-2,4-dimethyl-3-oxo-1,2,3,4-tetrahydropyrido[3,4-b]pyrazin-7-yl]amino}-N-cyclopropyl-5-methoxypyridine-3-carboxamide]: the IC50 in assay [1] amounted to 0.204 µM; in assay [2] (setting [5]), 0.015 µM; in assay [3], 0.209 µM.

For the molecule `CC[C@@H]1C(=O)N(C)c2cnc(Nc3ncc(C(=O)N[C@@H]4CCCCNC4=O)cc3OC)cc2N1C1CCCC1` [Example 16, 6-[[(2R)-1-Cyclopentyl-2-ethyl-1,2,3,4-tetrahydro-4-methyl-3-oxopyrido[3,4-b]pyrazin-7-yl]amino]-N-[(3R)-hexahydro-2-oxo-1H-azepin-3-yl]-5-methoxy-3-pyridinecarboxamide], the concentration for half-maximal inhibition (IC50) in assay [1] was 0.525 µM; in assay [2] (setting [4]) it was 0.022 µM; in assay [3] it was 0.077 µM.
